Laboratory results published in US20250186379A1, “METHODS AND AGENTS FOR DECREASING INSULIN RESISTANCE” (Whitehead Institute for Biomedical Research, priority 2021, published 2025).
Entries after “also recorded” stand apart in the source; their conditions may differ.

System: IR condensates
Experiment: tc-PALM of IR cluster/condensate dynamics in HepG2 cells expressing IR-Dendra2
Assay type: cell-based, human
Description: Widefield Live-cell super-resolution imaging was performed in a photo-activation localization microscopy (PALM) approach using a Nikon Eclipse Ti microscope with a 100× oil immersion objective. The 405 nm and 561 nm laser beams were combined in an external platform with customized power densities to image Dendra2-tagged molecules as previously reported (56). Cells were maintained at 37° C. in a temperature-controlled platform during imaging, and the CO2 level was maintained at 5% by Leibovitz's L-15 Medium with no phenol red (ThermoFisher #21083027). In each imaging cycle, a 2400-frame video stream including a (256 pixel)2 region of interest (ROI) was recorded in 20 Hz acquisition rate with the EM-gain setting as 1000 on an Andor iXon Ultra 897 EMCCD. Each pixel conjugates with a (160 nm)2 area on the sample side. After PALM imaging, the Hoechst-stained nuclei of the same ROI were imaged with stronger 405 nm excitation through DAPI filter.
Detection localization. For each frame of a raw image, Gaussian particles were identified by pixelwise test of hypotheses, whose peak positions were individually fitted at subpixel resolution by maximum-likelihood regression with Gauss-Newton method (91). An additional deflation loop was performed to avoid missing dimmer particles when they were overshadowed by neighboring brighter ones. This multi-particle detection localization procedure has been integrated in a published, open-source MATLAB software called MTT (91).
Spatial clustering. DBSCAN and “manual selection” hybridized approach was applied to group spatially clustered detections via the qSR software (92). Firstly, DBSCAN was performed to generalize a proposal map of spatially clustered detections. Given that IR condensates can be tiny and transient, a “loose” parameter setting was used when performing the DBSCAN (length-scale=120 nm, N_min=4). This parameter combination was determined by comparing the rendered super-resolved reconstructions with the color-coded cluster maps until the clustering results visually make sense for most ROIs. Secondly, individual clusters were manually selected based on the clustering proposal map from last step. Some custom MATLAB code was used to reconstruct the IR distribution of each ROI superposed with the corresponding nuclei image, which was further cross-compared with the corresponding cluster map to determine which region each cluster belongs to (i.e., plasma-membrane, cytoplasm, or nucleus).
Temporal clustering. For each spatial cluster, time-correlated PALM (tc-PALM) analysis was performed along the time axis to extract the truly colocalized, time-correlated multimolecule bursting events (11, 13-14). The lifetime of a burst is simply defined as the timespan from the first to the last detections. More details about the quantitative validations and statistics of tc-PALM analysis can be found in NOTES and FIG. 11.
Widefield, live-cell, super-resolution imaging was performed in a photo-activation localization microscopy (PALM) approach using a Nikon Eclipse Ti microscope with a 100× oil immersion objective. The 405 nm and 561 nm laser beams were combined in an external platform with customized power densities to image Dendra2-tagged molecules as previously reported^24. Cells were cultured on imaging dishes (MatTek, P35G-1.5-20-C) and then imaged while maintaining both the temperature at 37° C. with a temperature-controlled platform and the level of CO2 at 5% with Leibovitz's L-15 Medium with no phenol red (Thermo Fisher, 21083027). During each imaging cycle, a 2400-frame video stream including a (256 pixel)^2 region of interest (ROI) was recorded in 20 Hz acquisition rate with the EM-gain setting as 1000 on an Andor iXon Ultra 897 EMCCD. Each pixel conjugates with a (160 nm)^2 area on the sample side. After PALM imaging, the Hoechst-stained nuclei of the same ROI were imaged using a stronger 405 nm excitation through DAPI filter. […] Following a 5-minute wait, the cells were imaged for 15-20 minutes.

[1] = insulin resistant (3 nM insulin) versus sensitive (0.1 nM) cells
[2] = insulin sensitive cells, 3 nM insulin 5 min

## TNFα
HepG2 IR-Dendra2 cells, pathological TNFα or high nutrients (FIGS. 36A-36B)
  IR dynamics in condensates: decreased IR dynamics in condensates

## insulin: insulin (Sigma Aldrich, I9278-5ML) used for acute stimulation and chronic physiological or pathological exposure
Entire cells, insulin-stimulated (3 nM, 5 min), 22 (range 4-609) in unstimulated cells
  average number of IR-Dendra2 detections per cluster: 27 (range 4-539)
[1]
  increase of percentage of long-lived IR clusters, cytoplasm: 1.4 fold
  increase of percentage of long-lived IR clusters, nucleus: 3.6 fold
[2]
  number of IR clusters in the cytoplasm and nucleus: produced an increase; also recorded: resulted in an increase
  number of IR molecules / IR detections in clusters: an increase in the number of IR molecules in these clusters; also recorded: an increase in the number of IR detections in clusters
Insulin stimulated cells (3 nM, 5 min), 9 (2-46) in unstimulated cells
  average number of IR molecules per cluster, nucleus: 14 (2-283)
Insulin stimulated cells (3 nM, 5 min), 14 (2-264) in unstimulated cells
  average number of IR molecules per cluster, cytoplasm: 19 (2-295)
insulin-resistant (3 nM insulin) versus sensitive cells (FIG. 18B)
  percentage of long-lived IR condensates in the plasma membrane, cytoplasm and nucleus: also increased
Pathologic insulin (3 nM), insulin resistant cells, 5.9 s in sensitive cells (FIG. 4B)
  average lifetime of short-lived IR clusters, nucleus: 16 s
Pathologic insulin (3 nM), insulin resistant cells, 9.8 s in sensitive cells (FIG. 4B)
  average lifetime of short-lived IR clusters, cytoplasm: 13.2 s
Pathologic insulin (3 nM), insulin-resistant cells, 6.8 s in sensitive cells (FIG. 18B)
  average lifetime of short-lived IR condensates, plasma membrane: 11.8 s
Pathologic insulin (3 nM), insulin-resistant cells, 7.0 s in sensitive cells (FIG. 18B)
  average lifetime of short-lived IR condensates, nucleus: 12.9 s
Pathologic insulin (3 nM), insulin-resistant cells, 10.0 s in sensitive cells (FIG. 18B)
  average lifetime of short-lived IR condensates, cytoplasm: 15.8 s

## CN(C)C(=N)N=C(N)N [metformin, reference compound]
insulin-resistant cells, 12.5 μM metformin, after insulin washout (FIG. 18B)
  IR condensate lifetimes in the plasma membrane, cytoplasm and nucleus: rescued condensate lifetimes in the plasma membrane, cytoplasm and nucleus to times that were similar to those in insulin-sensitive cells
insulin-sensitive HepG2 IR-Dendra2 cells, 12.5 μM metformin for 1 day (FIG. 37)
  IR condensate lifetime in insulin-sensitive cells: did not decrease IR condensate lifetime; also recorded: does not decrease IR condensate lifetime
metformin-treated insulin resistant cells (FIG. 5C), no acute insulin stimulation
  IR cluster lifetimes in the cytoplasm and nucleus: reduced cluster lifetimes in the cytoplasm and nucleus to times that were similar to those in insulin sensitive cells
metformin-treated insulin resistant cells, 12.5 M metformin as printed (FIG. 5C), no acute insulin stimulation
  IR cluster lifetimes in the plasma membrane: little effect
metformin-treated resistant cells vs resistant cells (FIG. 5C)
  frequency of nuclear IR clusters with 0-25 s lifetimes: increased
metformin-treated resistant cells vs resistant cells (FIG. 18B)
  frequency of plasma membrane and nuclear IR condensates with 0-13 s lifetimes: increased
metformin-treated resistant cells, ~40% in insulin resistant cells (FIG. 5C)
  IR clusters in the cytoplasm with a lifetime of 0-25 s: ~60%
metformin-treated resistant cells, ~40% in insulin-resistant cells (FIG. 18B)
  IR condensates in the cytoplasm with a lifetime of 0-13 s: ~60%
